The text below walks through data of paper PMC11243530 (Molecules, 2024).

The test system of series [1] is KOR. Also on record: method as in PMID 34162205. The following applies: ref [23]; read-out: KOR agonist potency EC50; cited from earlier work.
Series [2] deals with KOR. Also on record: method as in PMID 34162205. The following applies: ref [23]; cited from earlier work.
A further series has as its target T1, cloned rat MOR (Rattus norvegicus, UniProt P33535).
T1 construct: expressed in transfected cells
In words: Radioligand binding, competitive inhibition of [^3H]DAMGO, MOR.

Series [3] relates to KOR. In words: Dynorphin-stimulated [^35S]GTPγS assay, KOR antagonism (Schild analysis). The following applies: for agonist activity / type of antagonism at KOR: [^35S]GTPγS binding assay. The format is biochemical. (GTPγS is a poorly hydrolysed GTP analogue; its binding reports G protein activation.)
Series [4] deals with T2, cloned rat KOR (Rattus norvegicus, UniProt P34975).
T2 construct: expressed in transfected cells
In words: Radioligand binding, competitive inhibition of [^3H]diprenorphine, KOR.

Series [5] concerns KOR. The following applies: following a single injection; ref [4]; cited from earlier work. The text has this:
Recently, antagonists of the kappa opioid receptor (KOR) have attracted significant attention due to their potential use in treating various central nervous system (CNS) disorders, especially mood disorders and substance abuse. […] Consequently, there has been a growing interest in KOR antagonists, including peptide KOR antagonists, with m ...

The test system of series [6] is stress-induced reinstatement of cocaine-seeking behavior. Conditions: mouse conditioned place preference; i.c.v.; ref [7]; cited from earlier work.
In a further series the test system is proteases. The following applies: linear peptide; general statement; cited from earlier work.
For series [7], the system named is KOR (antagonism of U50,488 antinociception). The following applies: mouse 55 °C warm-water tail withdrawal; i.c.v.; ref [7]; cited from earlier work.
The test system of series [8] is KOR. Conditions: [^35S]GTPγS binding assay; known comparator; cited from earlier work.
For series [9], the system named is KOR. The following applies: ref [6]; cited from earlier work.
The next series concerns the target ẟ opioid receptor (DOR). Conditions: ref [6]; cited from earlier work.
The target in series [10] is T2, cloned rat KOR. The following applies: read-out: KOR Ki ± SEM; cited from earlier work.

Read-outs that look alike come from different tables or passages of the source. Positions of bridges follow the written chain, without caps; N, C: chain ends. Non-standard residues stand in square brackets, D forms with d. Residues, ends and D or L forms follow the SMILES beside them. No end group written: not given here. *: point of attachment. X1 = CC(=O)N[C@@H](Cc1ccccc1)C(=O)N[C@H]1Cc2ccc(cc2)OC/C=C/COc2ccc(cc2)C[C@@H](C(=O)*)NC1=O; AllylGly = C=CC[C@H](N)C(=O)O

What is called EC50 is the concentration giving half of the maximal effect. By Ki is commonly meant a dissociation constant, usually derived from enzyme kinetics or from competition with a known ligand. As for “dynorphin A-(1–13)-NH2: KOR agonist reference peptide (YGGFLRRIRPKLK-NH2; UniProt P01213 207-219, looked up, fragment)”, in the series with KOR [1], the EC50 was 2.8 nM. Also, at KOR [2], the Ki is 0.3 nM.
One may read the Kb as the equilibrium dissociation constant of an antagonist, usually derived from a functional assay. Read a low Kb as a more potent antagonist. Regarding `CC(=O)N[C@@H](Cc1ccccc1)C(=O)N[C@H]1Cc2ccc(cc2)OC/C=C/COc2ccc(cc2)C[C@@H](C(=O)N[C@@H](CCCNC(=N)N)C(=O)N[C@H]2CC=CC[C@@H](C(=O)N[C@@H](CCCNC(=N)N)C(=O)N3CCC[C@H]3C(=O)N[C@@H](CCCCN)C(N)=O)NC(=O)[C@H](CCCNC(=N)N)NC(=O)[C@H](CCCNC(=N)N)NC2=O)NC1=O` [Peptide 4] (X1-R[AllylGly]RR[AllylGly]RPK-NH2; staple 2-5), the figures for the Ki at cloned rat MOR and at cloned rat KOR [4] were 2570 ± 500 nM and 26.4 ± 5.9 nM, respectively. Besides, the “agonist activity / type of antagonism at KOR” value in the series on KOR [3] is “did not exhibit appreciable agonist activity and functioned as a potent competitive KOR antagonist”; in the series with KOR [3] (listed as bicyclic analog), “exhibits potent KOR antagonism”. In the series on KOR [3] (dynorphin A-(1–13)-NH2-stimulated [^35S]GTPγS binding, KOR membranes, peptidase inhibitors present, four concentrations 1–1000 nM of 4, Schild analysis, mean values from 4 independent experiments), this compound registered a Kb of 0.9 nM. Moreover, in the series on KOR [3] (dynorphin-stimulated [^35S]GTPγS assay and KOR binding), the “KOR affinity and KOR antagonism relative to monocyclic analogs” value is “comparable to monocyclic analogs”. Also, the “KOR selectivity over MOR” value at cloned rat KOR [4] (MOR Ki / KOR Ki) is 97 fold. Besides, on cloned rat KOR [4] (MOR Ki / KOR Ki), the “Ki Ratio (MOR/KOR)” value came to 97.
Consider `CC(C)[C@@H](CN1CC[C@@](C)(c2cccc(O)c2)[C@@H](C)C1)NC(=O)[C@H]1Cc2ccc(O)cc2CN1` [JDTic], for which the duration of action entry with KOR [5] is reported as “exhibited prolonged effects, with their action extending from days to weeks”.
With “Ac[Phe^1,2,3,Arg^4,D-Ala^8]dynorphin A-(1–11)-NH2 [arodyn]”, the “reinstatement of cocaine-seeking behavior induced by stress” value in [6] was “prevented the reinstatement of cocaine-seeking behavior induced by stress”. Also, the susceptibility to proteolysis entry in the series on proteases is given as “susceptible to rapid breakdown by proteases”. For the same compound, the “antagonism of antinociception produced by U50,488” value in series [7] is listed as “antagonized antinociception produced by the KOR-selective agonist U50,488”. In the series with KOR [8], the “agonist activity / type of antagonism at KOR” value was “did not exhibit appreciable agonist activity and functioned as a potent competitive KOR antagonist”. Besides, in the series with KOR [9], the “KOR antagonism in vitro” value is “potent KOR antagonist in vitro”. Besides, on ẟ opioid receptor (DOR), the Ki was > 5000 nM.
For the compound “3: monocyclic arodyn analog, RCM cyclization between Tyr(All) residues in positions 2 and 3 (FYYRLRRARPK) [Peptide 3]”, in the series with cloned rat KOR [10], the Ki was 55.4 ± 4.1 nM.
